# Experimental data: paper PMC4309560, “Creating Novel Activated Factor XI Inhibitors through Fragment Based Lead Generation and Structure Aided Drug Design” (PLoS ONE, 2015)
# Like-named read-outs stand apart in the source and are kept apart here.
# Columns and labels:
# Human FXIa = target: T1, Human FXIa (Homo sapiens, UniProt P03951); experiment: FXIa enzymatic chromogenic assay; type: biochemical
# T1 construct: purchased HTI, Essex Junction, USA
# Protocol: (§1) Enzymatic assay. […] Selected compounds were also screened against other serine proteases to evaluate their selectivity profiles.
# (§2) Once the compounds were synthesized and characterized, enzymatic assays were performed to evaluate the inhibitory activity of the resulting compounds against FXIa and other serine proteases. […] IC50 values for the compounds were determined using equation: Q= V/(1+([I]/IC50)^n) Q denotes the assay readout, V denotes the uninhibited velocity of the enzyme, [I] denotes the inhibitor concentration, n denotes the slope and IC50 is the inhibitor concentration at V/2.
# (§3) [S] denotes the substrate concentration.
# Human plasmin = target: T2, Human plasmin (Homo sapiens, UniProt P00747); experiment: Plasmin chromogenic assay; type: biochemical; details: for inhibition at 99 µM: read-out: Plasmin % inhibition at 99 μM
# T2 construct: Human plasmin was from Enzyme Research Laboratories, Swansea, UK; purchased Enzyme Research Laboratories, Swansea, UK
# T2 sequence (P00747 581-810 limits assumed): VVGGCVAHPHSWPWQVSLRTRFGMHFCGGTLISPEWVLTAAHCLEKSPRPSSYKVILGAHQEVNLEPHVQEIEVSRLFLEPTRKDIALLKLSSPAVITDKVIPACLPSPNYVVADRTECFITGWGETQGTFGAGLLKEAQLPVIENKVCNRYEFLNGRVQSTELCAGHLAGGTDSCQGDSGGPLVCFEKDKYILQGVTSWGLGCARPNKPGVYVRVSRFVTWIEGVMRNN
# T2 sequence (P00747 97-580 partner limits assumed): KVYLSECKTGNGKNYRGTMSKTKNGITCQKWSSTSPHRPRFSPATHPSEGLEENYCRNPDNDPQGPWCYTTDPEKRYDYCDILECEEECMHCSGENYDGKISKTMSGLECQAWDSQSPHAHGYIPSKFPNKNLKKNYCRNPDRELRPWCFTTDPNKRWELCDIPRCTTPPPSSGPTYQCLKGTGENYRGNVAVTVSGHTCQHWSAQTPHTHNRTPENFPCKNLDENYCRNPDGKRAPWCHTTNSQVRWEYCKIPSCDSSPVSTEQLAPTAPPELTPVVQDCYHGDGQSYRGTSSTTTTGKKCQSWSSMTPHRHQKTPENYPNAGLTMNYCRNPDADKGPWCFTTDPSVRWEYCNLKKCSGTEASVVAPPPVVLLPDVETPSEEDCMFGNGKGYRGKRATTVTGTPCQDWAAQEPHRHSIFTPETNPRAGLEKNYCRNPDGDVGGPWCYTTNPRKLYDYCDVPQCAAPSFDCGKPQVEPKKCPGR
# Protocol: as §1, §2, §3
# Plasmin. Human plasmin was from Enzyme Research Laboratories, Swansea, UK.
# Human tPA = Human tPA (Homo sapiens, UniProt P00750); experiment: biochemical; details: read-out: tPA % inhibition at 99 μM
# Human tPA, sequence (P00750 36-562): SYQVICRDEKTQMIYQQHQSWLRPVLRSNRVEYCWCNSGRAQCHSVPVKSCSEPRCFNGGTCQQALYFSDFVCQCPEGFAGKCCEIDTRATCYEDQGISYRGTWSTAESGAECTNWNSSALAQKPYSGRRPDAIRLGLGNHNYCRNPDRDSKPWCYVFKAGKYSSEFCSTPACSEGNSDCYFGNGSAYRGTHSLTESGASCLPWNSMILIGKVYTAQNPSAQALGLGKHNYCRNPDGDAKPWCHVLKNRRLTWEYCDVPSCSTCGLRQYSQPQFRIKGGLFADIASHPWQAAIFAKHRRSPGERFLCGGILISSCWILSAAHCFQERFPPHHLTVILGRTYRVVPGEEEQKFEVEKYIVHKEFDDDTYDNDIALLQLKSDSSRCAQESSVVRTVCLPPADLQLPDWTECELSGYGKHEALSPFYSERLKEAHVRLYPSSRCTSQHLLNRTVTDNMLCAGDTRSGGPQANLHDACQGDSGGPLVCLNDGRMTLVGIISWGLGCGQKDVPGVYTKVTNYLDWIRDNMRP
# Protocol: as §1, §2
# tPa. Human tPA was from Biopool, Umeå, Sweden.
# [1] = target: T3, Human recombinant thrombin (Homo sapiens, UniProt P00734); experiment: Thrombin (FIIa) chromogenic assay; type: biochemical; details: for inhibition at 99 µM: read-out: FIIa % inhibition at 99 μM
# T3 construct: Human recombinant thrombin was prepared in house; made in house
# Protocol: as §1, §2, §3
# Thrombin. Human recombinant thrombin was prepared in house.
# Human FXa = Human FXa (Homo sapiens, UniProt P00742); experiment: biochemical; details: read-out: FXa % inhibition at 99 μM
# Human FXa, sequence (P00742 235-488 limits assumed): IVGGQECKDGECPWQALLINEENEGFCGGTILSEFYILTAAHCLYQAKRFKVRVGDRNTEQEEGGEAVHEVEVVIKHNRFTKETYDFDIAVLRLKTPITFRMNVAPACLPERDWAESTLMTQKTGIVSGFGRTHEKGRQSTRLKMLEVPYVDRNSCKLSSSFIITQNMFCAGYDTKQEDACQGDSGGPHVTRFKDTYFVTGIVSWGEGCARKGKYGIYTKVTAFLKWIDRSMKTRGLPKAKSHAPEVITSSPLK
# Human FXa, sequence (P00742 41-179 partner limits assumed): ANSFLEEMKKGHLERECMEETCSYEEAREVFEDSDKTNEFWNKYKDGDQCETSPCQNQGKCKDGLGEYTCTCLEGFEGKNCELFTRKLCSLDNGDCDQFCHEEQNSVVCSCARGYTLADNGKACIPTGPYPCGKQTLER
# Protocol: as §1, §2
# Human FIXa = Human FIXa (Homo sapiens, UniProt P00740); experiment: biochemical; details: read-out: FIXa % inhibition at 99 μM
# Human FIXa, sequence (P00740 227-461 limits assumed): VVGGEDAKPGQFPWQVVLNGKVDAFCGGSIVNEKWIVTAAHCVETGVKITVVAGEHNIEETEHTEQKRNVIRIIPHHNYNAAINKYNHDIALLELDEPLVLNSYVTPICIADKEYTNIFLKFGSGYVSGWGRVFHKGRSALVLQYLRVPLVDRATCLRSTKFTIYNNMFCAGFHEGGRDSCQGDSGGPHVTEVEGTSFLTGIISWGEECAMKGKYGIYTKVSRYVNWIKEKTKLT
# Human FIXa, sequence (P00740 47-191 partner limits assumed): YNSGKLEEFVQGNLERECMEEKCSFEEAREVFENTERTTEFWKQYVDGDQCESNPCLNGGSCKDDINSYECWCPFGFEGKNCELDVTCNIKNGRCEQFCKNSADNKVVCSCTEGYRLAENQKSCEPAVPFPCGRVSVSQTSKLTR
# Protocol: as §1, §2
# [2] = target: Recombinant human trypsin (Homo sapiens, UniProt P07477); experiment: biochemical; details: read-out: Trypsin % inhibition at 99 μM
# Protocol: as §1, §2
# Trypsin. Recombinant human trypsin was from Polymun, Vienna, Austria.
# Human PKK = target: T4, Human PKK (Homo sapiens, UniProt P03952); experiment: PKK (plasma kallikrein) chromogenic assay; type: biochemical; details: for Ki: converted from IC50
# T4 construct: trypsin, plasma kallikrein (PKK), FIXa; purchased Calbiochem, Darmstadt, Germany
# T4 sequence (P03952 391-638 limits assumed): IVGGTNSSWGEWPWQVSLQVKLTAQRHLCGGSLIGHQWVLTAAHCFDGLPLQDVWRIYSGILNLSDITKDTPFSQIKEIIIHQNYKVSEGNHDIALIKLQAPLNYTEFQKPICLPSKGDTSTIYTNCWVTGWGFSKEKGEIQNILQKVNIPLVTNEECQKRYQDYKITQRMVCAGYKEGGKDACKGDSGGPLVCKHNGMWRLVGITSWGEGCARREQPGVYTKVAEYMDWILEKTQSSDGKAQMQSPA
# T4 sequence (P03952 20-390 partner limits assumed): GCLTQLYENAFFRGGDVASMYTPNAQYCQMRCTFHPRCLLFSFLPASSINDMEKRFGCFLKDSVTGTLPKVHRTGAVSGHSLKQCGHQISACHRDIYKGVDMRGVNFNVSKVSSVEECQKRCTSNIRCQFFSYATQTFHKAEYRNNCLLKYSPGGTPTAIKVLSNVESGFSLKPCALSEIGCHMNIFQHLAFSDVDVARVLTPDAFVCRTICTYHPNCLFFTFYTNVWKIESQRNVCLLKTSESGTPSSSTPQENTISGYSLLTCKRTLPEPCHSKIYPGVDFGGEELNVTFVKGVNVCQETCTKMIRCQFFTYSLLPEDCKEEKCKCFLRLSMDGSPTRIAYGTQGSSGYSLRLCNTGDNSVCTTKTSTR
# Protocol: as §1, §2, §3
# PKK. Human PKK was from Calbiochem, Darmstadt, Germany.
# rat hepatocytes = experiment: Rat hepatocyte metabolic stability assay; type: in vitro ADME
# Protocol: Rat hepatocyte metabolic stability was determined in accordance with the method described by Jacobson et al.. Cryo preserved hepatocytes at a concentration of 10^6 viable cells/mL were used. After thawing, hepatocytes were incubated for 10 min to warm to 37°C and test compounds, dissolved in acetonitrile, were added to give a final concentration of 1 μM. At 0.5, 5, 15, 30, 45, 60, 80, 100 and 120 min, the incubation system was mixed and 20 μL aliquots were transferred at each time point to wells in a separate plate filled with 80 μL acetonitrile to stop the reaction. The quenching plate was then vortexed followed by centrifugation, and supernatants were analyzed by LC/MS/MS. Peak areas were determined from extracted ion chromatograms, and the in vitro intrinsic clearance (in vitro CLint, in μL/min/10^6 cells) of parent compound was calculated from the slope in the regression analysis of the natural logarithm of parent concentration vs. time curve.
# Caco2 efflux = type: in vitro ADME; details: human, Caco-2; Caco2, Papp B to A / Papp A to B, pH 7.4 at side A
# Text: Efflux was studied in the same Caco2 cells with the modification that HBSS buffer pH 7.4 was used on both sides of the monolayer. The permeability was studied in the apical to basolateral direction (Papp AB) as well as in the basolateral to apical direction and (Papp BA). Efflux ratios were derived from the following equation: Papp BA/Papp AB.
# [3] = Chromatographic determination of lipophilicity; type: physicochemical; details: reversed-phase UPLC, Waters BEH C18 stationary phase, pH 7.4; measured by liquid chromatography, pH7.4
# Text: The chromatographic data was obtained utilizing a Waters Aquity UPLC chromatographic system running a gradient from 5–95% acetonitrile at pH7.4. The stationary phase was a Waters BEH C18 2.1x50 mm. Standardized retention data were obtained by normalization against a set of compounds with precisely determined (octanol/water) logD-values. Lipophilicity values for samples were derived from a corresponding calibration curve.
# Caco2 cells = experiment: Caco2 permeability; type: in vitro ADME
# Protocol: A monolayer of Caco2 cells, cultured on semi-permeable polycarbonate surfaces, was used to study the permeability in the apical to basolateral direction. The process was atomized by a robotic Tecan EVO platform (Männerdorf, Switzerland) and 24-transwell plates from Costar (Cambridge, MA, USA). HBSS buffer pH 7.4 was dispensed to the basal side of the monolayer. […] Samples for quantitative analysis by LC/MS/MS were withdrawn before the addition of the test substrate and at 45 and 120 min post addition of the test substrate. During incubation the transwell plates were placed in a shaking incubator at 37°C between sampling. The peak areas were exported to Excel where Papp-values and recoveries were calculated. Twenty-two reference compounds with known human oral bioavailability were used to establish a correlation curve with Papp versus the fraction of the oral dose absorbed (fa).
# T1 sequence (P03951 388-625): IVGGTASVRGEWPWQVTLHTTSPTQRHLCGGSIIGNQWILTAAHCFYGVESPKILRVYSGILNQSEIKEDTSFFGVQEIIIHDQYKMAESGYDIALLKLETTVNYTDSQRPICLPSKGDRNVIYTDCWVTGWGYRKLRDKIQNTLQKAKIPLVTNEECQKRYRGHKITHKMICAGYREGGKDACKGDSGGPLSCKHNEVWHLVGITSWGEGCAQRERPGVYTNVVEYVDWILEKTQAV
# T1 sequence (P03951 19-387): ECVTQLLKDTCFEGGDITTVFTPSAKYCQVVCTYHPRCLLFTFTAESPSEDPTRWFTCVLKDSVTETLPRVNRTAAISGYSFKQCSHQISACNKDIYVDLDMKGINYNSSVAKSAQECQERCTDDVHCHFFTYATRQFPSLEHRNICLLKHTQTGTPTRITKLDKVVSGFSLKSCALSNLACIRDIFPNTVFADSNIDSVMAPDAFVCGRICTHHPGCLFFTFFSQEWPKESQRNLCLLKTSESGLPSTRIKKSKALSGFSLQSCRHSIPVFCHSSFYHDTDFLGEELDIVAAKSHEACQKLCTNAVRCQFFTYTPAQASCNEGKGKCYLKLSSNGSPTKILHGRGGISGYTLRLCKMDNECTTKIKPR
SMILES,IC50 (Human FXIa) [µM],Ki (Human FXIa) [µM],inhibition at 99 µM (Human plasmin) [%],inhibition at 99 µM (Human tPA) [%],inhibition at 99 µM [1] [%],inhibition at 99 µM (Human FXa) [%],inhibition at 99 µM (Human FIXa) [%],inhibition at 99 µM [2] [%],IC50 (Human PKK) [µM],Ki (Human PKK) [µM],also measured
[H]/N=C(/N)c1ccc2cc(C(=O)Nc3ccccc3)cc(Nc3ncccn3)c2c1 [Compound 1],< 0.14,–,–,–,–,–,–,–,–,–,–
"CCCS(=O)(=O)N[C@@H](C(=O)N[C@@H](CC(C)C)C(=O)NCc1ccc(C(=N)N)cc1)C1CCCCC1 [Compound 2, reference compound]",0.11,0.06,–,–,–,–,–,–,–,–,–
O=c1ccc2cc(Cl)ccc2[nH]1 [Compound 5],140,–,31,0,8,31,1,0,–,–,"ligand efficiency (LE) (Human FXIa; FXIa): 0.44; -ΔG fragment (printed with reversed sign in the ΔG link equation) (Human FXIa; FXIa, subtracted term, so ΔG itself is negative): 5.66 kcal/mol; Ki (Human FXIa; read-out: FXIa Ki): 70 µM; inhibition at 99 µM (Human PKK; read-out: PKK % inhibition at 99 μM): 5%"
"N=C(N)c1ccccc1 [Compound 7, benzamidine, reference compound]",610,–,–,–,–,–,–,–,–,–,–
"COC(=O)Nc1ccc(-c2nc(CNC(=O)CCc3cc(Cl)ccc3-n3cnnn3)[nH]c2Cl)cc1 [Compound 11, reference compound]",0.16,0.08,0,0,–,6,0,4,20,4.2,IC50 [1]: 63 µM; Ki ([1]; converted from IC50): 31 µM
"CC(=O)N[C@@H](Cc1ccccc1)C(=O)NCc1cc(=O)[nH]c2ccc(Cl)cc12 [Compound 14, (S)-2-Acetamido-N-{(6-chloro-2-oxo-1,2-dihydroquinolin-4-yl)methyl}-3-phenylpropanamide]",33,16,7,3,9,0,4,18,59,12,ligand efficiency (LE) (Human FXIa; FXIa): 0.22
"CN(C)C(=O)[C@H](Cc1ccccc1)NC(=O)c1ccc2[nH]c(=O)cc(O)c2c1 [Compound 16, (S)-N-(1-(Dimethylamino)-1-oxo-3-phenylpropan-2-yl)-4-hydroxy-2-oxo-1,2-dihydroquinoline-6-carboxamide]",> 1000,–,–,–,–,–,–,–,–,–,inhibition at 1000 µM (Human FXIa; read-out: FXIa % inh. at 1 mM): 36%
"O=C1CC(CNC(=O)[C@H](Cc2ccccc2)NC(=O)c2ccc3[nH]c(=O)cc(O)c3c2)c2cc(Cl)ccc2N1 (some centres unmarked) [Compound 18, N-({2S}-1-({6-Chloro-2-oxo-1,2,3,4-tetrahydroquinolin-4-yl}methylamino)-1-oxo-3-phenylpropan-2-yl)-4-hydroxy-2-oxo-1,2-dihydroquinoline-6-carboxamide]",0.01,0.005,–,–,–,–,–,–,–,–,–
Cc1cc(N)nc2ccccc12 [Compound 19],240,120,8,7,8,9,7,43,–,–,–
"O=C1CC(CC(=O)NC(Cc2ccccc2)C(=O)Nc2ccc(-c3nnn[nH]3)cc2)c2cc(Cl)ccc2N1 (centres unmarked) [Compound 20, N-(4-(1H-Tetrazol-5-yl)phenyl)-2-(2-(6-chloro-2-oxo-1,2,3,4-tetrahydroquinolin-4-yl)acetamido)-3-phenylpropanamide]",0.33,0.16,8,15,10,12,4,7,2.3,0.48,–
"O=C(CC1Cc2cc(Cl)ccc2NC1=O)NC(Cc1ccccc1)C(=O)Nc1ccc(-c2nnn[nH]2)cc1 (centres unmarked) [Compound 21, N-(4-(1H-Tetrazol-5-yl)phenyl)-2-(2-(6-chloro-2-oxo-1,2,3,4-tetrahydroquinolin-3-yl)acetamido)-3-phenylpropanamide]",1.9,0.95,0,3,2,0,0,1,25,5.2,–
"O=C(Cc1cc2cc(Cl)ccc2[nH]c1=O)NC(Cc1ccccc1)C(=O)Nc1ccc(-c2nnn[nH]2)cc1 (centres unmarked) [Compound 22, N-(4-(1H-Tetrazol-5-yl)phenyl)-2-(2-(6-chloro-2-oxo-1,2-dihydroquinolin-3-yl)acetamido)-3-phenylpropanamide]",10,5,–,18,27,24,7,14,10,2.1,IC50 (Human plasmin): 70 µM; Ki (Human plasmin; converted from IC50): 33 µM
"O=C(CCc1cc2cc(Cl)ccc2[nH]c1=O)N[C@@H](Cc1ccccc1)C(=O)Nc1ccc(-c2nnn[nH]2)cc1 [Compound 23, (S)-N-(4-(1H-Tetrazol-5-yl)phenyl)-2-(3-(6-chloro-2-oxo-1,2-dihydroquinolin-3-yl)propanamido)-3-phenylpropanamide]",67,34,–,–,–,–,–,–,–,–,–
"O=C(CCc1cc(=O)[nH]c2ccc(Cl)cc12)N[C@@H](Cc1ccccc1)C(=O)Nc1ccc(-c2nnn[nH]2)cc1 [Compound 24, (S)-N-(4-(1H-Tetrazol-5-yl)phenyl)-2-(3-(6-chloro-2-oxo-1,2-dihydroquinolin-4-yl)propanamido)-3-phenylpropanamide]",9,4.5,–,–,–,–,–,–,–,–,–
"CN(Cc1cc(=O)[nH]c2ccc(Cl)cc12)C(=O)[C@H](Cc1ccccc1)NC(=O)c1ccc2[nH]c(=O)cc(O)c2c1 [Compound 25, (S)-N-(1-[{(6-Chloro-2-oxo-1,2-dihydroquinolin-4-yl)methyl}(methyl)amino]-1-oxo-3-phenylpropan-2-yl)-4-hydroxy-2-oxo-1,2-dihydroquinoline-6-carboxamide]",< 0.005,–,–,–,–,–,–,–,–,–,Rat CLint (rat hepatocytes): 10 μL/min/ 1·10^6 cells; efflux ratio (Caco2 efflux): 5.2; inhibition at 0.005 µM (Human FXIa; read-out: FXIa % inh. at 5 nM): 85%; chromatographic logD [3]: 1.3; Caco2 A to B permeability (Caco2 cells; measured at pH 6.5): 0.28 1·10^-6 cm/s
Cc1c(-c2ccccc2)n[nH]c1C(=O)N(C)Cc1cc(=O)[nH]c2ccccc12 [Compound 27],99,50,–,–,–,–,–,–,–,–,Rat CLint (rat hepatocytes): 58 μL/min/ 1·10^6 cells; efflux ratio (Caco2 efflux): 6.7; Caco2 A to B permeability (Caco2 cells; measured at pH 7.4 at side A): 12 1·10^-6 cm/s
